{"source": "patent EP3049422B1", "about": "“INTUMESCENT COATINGS” (MIPA SE, priority 2013, dated 2015)", "data": [{"experiment": "Water solubility of the salts", "type": "physicochemical", "settings": "not given", "text": "(§1) Organische Lösungsmittel tragen zur Umweltverschmutzung bei und deshalb ist es wünschenswert, Wasser als Basis für Reaktionen oder auch Lacke zu verwenden. […] Wir beobachteten, dass vor allem die Kombination mit Alkalimetallen zu einer sehr guten Löslichkeit führte.\n(§2) Ein wichtiges Kriterium für die Auswahl der Substanzen für eingehendere Studien, war deren Wasserlöslichkeit. Ausgeschlossen wurden vor allem Verbindungen, die höhere Kationen als die Alkalimetalle enthalten, da diese nur sehr schlecht löslich sind. Trotzdem wurde zumindest für zwei wasserunlösliche Salze versucht, sie als Suspensionen aufzubringen. Ausgewählt wurden dafür ALDA und Calcium(II)hydantoinat.", "values": [{"molecule": "O=C1CN(CN2CC(=O)NC2=O)C(=O)N1", "note": "[1,1'-(Methylen) bishydantoin Kalium, Kalium(I)N,N'-methylenbishydantoinat]", "Wasser löslich": "+"}, {"molecule": "O=C1CN(CN2CC(=O)NC2=O)C(=O)N1", "note": "[1,1'-(Methylen) bishydantoin Natrium, Natrium(I)N,N'-methylenbishydantoinat]", "Wasser löslich": "+"}, {"molecule": "CC(N1CC(=O)NC1=O)N1CC(=O)NC1=O", "note": "[1,1'-(Methylmethylen) bishydantoin Calcium] [Calcium(II)N,N'-(methylmethylen)bishydantoinat]", "Wasser löslich": "+"}, {"molecule": "CC(N1CC(=O)NC1=O)N1CC(=O)NC1=O", "note": "[1,1'-(Methylmethylen) bishydantoin Kalium] [Kalium(I)N,N'-(methylmethylen)bishydantoinat]", "Wasser löslich": "+"}, {"molecule": "CC(N1CC(=O)NC1=O)N1CC(=O)NC1=O", "note": "[1,1'-(Methylmethylen) bishydantoin Natrium] [Natrium(I)N,N'-(methylmethylen)bishydantoinat]", "Wasser löslich": "+"}, {"molecule": "NC(=O)NC1NC(=O)NC1=O", "note": "(stereo not shown) [Allantoin Calcium, Calcium(II)allantoinat]", "Wasser löslich": "+"}, {"molecule": "NC(=O)NC1NC(=O)NC1=O", "note": "(stereo not shown) [Allantoin Kalium, Kalium(I)allantoinat]", "Wasser löslich": "+"}, {"molecule": "NC(=O)NC1NC(=O)NC1=O", "note": "(stereo not shown) [Allantoin Natrium, Natrium(I)allantoinat]", "Wasser löslich": "+"}, {"molecule": "NC(=O)NC1NC(=O)NC1=O", "note": "(stereo not shown) [Allantoin, reference compound]", "Wasserlöslichkeit": "schlecht wasserlöslich"}, {"molecule": "O=C1CN(CN2CC(=O)[N-]C2=O)C(=O)[N-]1.OC[P+](CO)(CO)CO.OC[P+](CO)(CO)CO", "note": "[Bis[tetrakis(hydroxymethyl)phosphonium]N,N'-methylenbishydantoinat]", "Wasser löslich": "+"}, {"molecule": "O=C1CNC(=O)N1", "note": "[Hydantoin Calcium, Calcium(II)hydantoinat]", "Wasser löslich": "-"}, {"molecule": "O=C1CNC(=O)N1", "note": "[Hydantoin Kalium, Kalium(I)hydantoinat]", "Wasser löslich": "+"}, {"molecule": "O=C1CNC(=O)N1", "note": "[Hydantoin Natrium, Natrium(I)hydantoinat]", "Wasser löslich": "+"}, {"molecule": "O=C1CNC(=O)N1", "note": "[Hydantoin Tetramethylammonium, Tetramethylammoniumhydantoinat]", "Wasser löslich": "+"}, {"molecule": "Dihydroxyaluminiumallantoinat [Allantoin Al(OH)2*, reference compound]", "Wasser löslich": "-"}, {"molecule": "Tetrakis(hydroxymethyl)phosphoniumhydantoinat", "Wasser löslich": "+"}]}, {"experiment": "Water solubility of the salts", "type": "physicochemical", "settings": "in words", "text": "as §1, §2", "values": [{"molecule": "O=C1CNC(=O)N1", "note": "[Hydantoin Calcium, Calcium(II)hydantoinat]", "Wasserlöslichkeit": "wasserunlösliche"}, {"molecule": "O=C1CNC(=O)N1", "note": "[Hydantoin, reference compound]", "Wasserlöslichkeit": "schlecht wasserlöslich"}, {"molecule": "Dihydroxyaluminiumallantoinat [Allantoin Al(OH)2*, reference compound]", "Wasserlöslichkeit": "wasserunlösliche"}]}]}
